How the values were obtained:
[1] = molecular target: Hepatocyte growth factor receptor (Homo sapiens, UniProt P08581); settings: at 10 µM
[2] = molecular target: Mitogen-activated protein kinase 1 (Homo sapiens, UniProt P28482); assay: Selectivity interaction (ActivX KiNativ screen (kinase selectivity in THP-1 cell lysates)) EUB0000639a MAPK1; assay type: subcellular; settings: lysate, at 5 µM
[3] = molecular target: T1, Serine/threonine-protein kinase D1 (Homo sapiens) (UniProt Q15139); assay: Selectivity interaction (KinomeScan (DiscoverX)) EUB0000695a PRKD1; settings: at 100 nM
T1 sequence (whole entry): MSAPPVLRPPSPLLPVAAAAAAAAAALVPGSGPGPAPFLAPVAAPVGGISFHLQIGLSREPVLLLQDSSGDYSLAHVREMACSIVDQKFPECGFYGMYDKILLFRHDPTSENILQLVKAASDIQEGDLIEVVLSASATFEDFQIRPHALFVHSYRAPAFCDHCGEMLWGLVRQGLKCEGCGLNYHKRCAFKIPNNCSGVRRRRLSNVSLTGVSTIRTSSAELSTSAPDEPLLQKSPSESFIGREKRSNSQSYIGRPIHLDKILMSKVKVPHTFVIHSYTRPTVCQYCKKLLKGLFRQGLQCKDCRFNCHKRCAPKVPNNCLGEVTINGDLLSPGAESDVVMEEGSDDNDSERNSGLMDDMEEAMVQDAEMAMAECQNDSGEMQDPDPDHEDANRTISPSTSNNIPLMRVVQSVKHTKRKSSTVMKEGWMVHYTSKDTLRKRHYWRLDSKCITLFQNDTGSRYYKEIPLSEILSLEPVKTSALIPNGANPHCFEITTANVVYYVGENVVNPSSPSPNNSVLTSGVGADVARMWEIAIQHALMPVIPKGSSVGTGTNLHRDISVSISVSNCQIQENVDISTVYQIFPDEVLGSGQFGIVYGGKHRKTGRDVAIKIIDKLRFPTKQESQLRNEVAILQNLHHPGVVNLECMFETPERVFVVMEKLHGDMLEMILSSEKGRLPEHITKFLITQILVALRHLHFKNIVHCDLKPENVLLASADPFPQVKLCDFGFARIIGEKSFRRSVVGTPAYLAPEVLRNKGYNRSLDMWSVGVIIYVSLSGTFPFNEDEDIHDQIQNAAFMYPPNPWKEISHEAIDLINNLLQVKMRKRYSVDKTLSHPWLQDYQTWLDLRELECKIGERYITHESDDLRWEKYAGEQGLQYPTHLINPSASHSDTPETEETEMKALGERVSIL

[4] = molecular target: T2, Mitogen-activated protein kinase kinase kinase 12 (Homo sapiens) (UniProt Q12852); assay: Selectivity interaction (KinomeScan (DiscoverX)) EUB0000092b MAP3K12; settings: at 10 µM
T2 sequence (whole entry): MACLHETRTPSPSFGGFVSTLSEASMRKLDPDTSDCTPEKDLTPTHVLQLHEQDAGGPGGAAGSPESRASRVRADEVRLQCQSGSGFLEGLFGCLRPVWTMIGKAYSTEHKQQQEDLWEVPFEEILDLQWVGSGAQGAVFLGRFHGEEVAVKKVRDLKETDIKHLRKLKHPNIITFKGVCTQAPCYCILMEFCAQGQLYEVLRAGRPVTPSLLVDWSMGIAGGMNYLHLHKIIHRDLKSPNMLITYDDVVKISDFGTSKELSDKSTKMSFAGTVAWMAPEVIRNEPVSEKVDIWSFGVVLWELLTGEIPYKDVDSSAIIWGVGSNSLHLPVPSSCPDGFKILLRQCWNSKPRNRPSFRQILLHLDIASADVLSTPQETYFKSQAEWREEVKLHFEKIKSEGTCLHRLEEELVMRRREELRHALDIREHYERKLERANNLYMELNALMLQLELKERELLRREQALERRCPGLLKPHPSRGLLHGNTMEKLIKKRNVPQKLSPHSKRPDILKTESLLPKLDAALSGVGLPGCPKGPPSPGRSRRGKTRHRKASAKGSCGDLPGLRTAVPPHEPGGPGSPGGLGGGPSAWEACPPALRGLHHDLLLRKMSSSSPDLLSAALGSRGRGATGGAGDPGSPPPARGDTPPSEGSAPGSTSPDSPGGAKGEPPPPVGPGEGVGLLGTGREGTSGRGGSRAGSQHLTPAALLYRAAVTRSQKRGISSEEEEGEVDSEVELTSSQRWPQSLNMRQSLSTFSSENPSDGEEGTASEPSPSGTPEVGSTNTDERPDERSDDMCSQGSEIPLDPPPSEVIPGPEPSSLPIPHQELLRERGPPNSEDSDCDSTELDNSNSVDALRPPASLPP

[5] = molecular target: Serine/threonine-protein kinase PAK 6 (Homo sapiens) (UniProt Q9NQU5); assay: Selectivity interaction (KinomeScan (DiscoverX)) EUB0000618a PAK6; settings: at 10 µM
[6] = molecular target: T3, Myotonin-protein kinase (Homo sapiens) (UniProt Q09013); assay: Selectivity interaction (KinomeScan (DiscoverX)) EUB0000607a DMPK; settings: at 10 µM
T3 sequence (whole entry): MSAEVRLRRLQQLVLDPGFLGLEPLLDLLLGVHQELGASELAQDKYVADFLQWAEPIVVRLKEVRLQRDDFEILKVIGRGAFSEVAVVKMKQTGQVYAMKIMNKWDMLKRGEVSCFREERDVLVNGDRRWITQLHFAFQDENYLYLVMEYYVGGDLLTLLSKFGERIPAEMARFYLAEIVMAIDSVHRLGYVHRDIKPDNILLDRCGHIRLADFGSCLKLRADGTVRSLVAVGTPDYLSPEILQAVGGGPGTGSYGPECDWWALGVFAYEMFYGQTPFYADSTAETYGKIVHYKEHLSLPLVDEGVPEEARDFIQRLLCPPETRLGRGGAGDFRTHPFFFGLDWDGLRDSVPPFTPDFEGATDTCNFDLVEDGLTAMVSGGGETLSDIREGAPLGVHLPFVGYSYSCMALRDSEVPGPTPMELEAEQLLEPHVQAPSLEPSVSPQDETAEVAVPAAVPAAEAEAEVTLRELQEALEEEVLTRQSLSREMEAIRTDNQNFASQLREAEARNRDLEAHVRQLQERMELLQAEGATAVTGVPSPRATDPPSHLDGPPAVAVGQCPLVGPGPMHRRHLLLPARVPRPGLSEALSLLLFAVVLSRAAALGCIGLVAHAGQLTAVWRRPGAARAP

Chain of Mitogen-activated protein kinase 1 (P28482 whole entry): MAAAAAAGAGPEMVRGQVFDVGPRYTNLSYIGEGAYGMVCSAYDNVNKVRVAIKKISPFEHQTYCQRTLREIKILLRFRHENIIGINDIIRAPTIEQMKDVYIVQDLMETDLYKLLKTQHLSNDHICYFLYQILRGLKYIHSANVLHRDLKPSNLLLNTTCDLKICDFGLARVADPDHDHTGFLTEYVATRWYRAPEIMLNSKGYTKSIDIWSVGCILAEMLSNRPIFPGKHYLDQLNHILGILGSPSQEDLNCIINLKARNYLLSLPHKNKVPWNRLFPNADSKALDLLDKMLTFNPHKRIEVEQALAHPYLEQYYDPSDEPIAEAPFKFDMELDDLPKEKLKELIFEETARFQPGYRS
Chain of Hepatocyte growth factor receptor (P08581 whole entry): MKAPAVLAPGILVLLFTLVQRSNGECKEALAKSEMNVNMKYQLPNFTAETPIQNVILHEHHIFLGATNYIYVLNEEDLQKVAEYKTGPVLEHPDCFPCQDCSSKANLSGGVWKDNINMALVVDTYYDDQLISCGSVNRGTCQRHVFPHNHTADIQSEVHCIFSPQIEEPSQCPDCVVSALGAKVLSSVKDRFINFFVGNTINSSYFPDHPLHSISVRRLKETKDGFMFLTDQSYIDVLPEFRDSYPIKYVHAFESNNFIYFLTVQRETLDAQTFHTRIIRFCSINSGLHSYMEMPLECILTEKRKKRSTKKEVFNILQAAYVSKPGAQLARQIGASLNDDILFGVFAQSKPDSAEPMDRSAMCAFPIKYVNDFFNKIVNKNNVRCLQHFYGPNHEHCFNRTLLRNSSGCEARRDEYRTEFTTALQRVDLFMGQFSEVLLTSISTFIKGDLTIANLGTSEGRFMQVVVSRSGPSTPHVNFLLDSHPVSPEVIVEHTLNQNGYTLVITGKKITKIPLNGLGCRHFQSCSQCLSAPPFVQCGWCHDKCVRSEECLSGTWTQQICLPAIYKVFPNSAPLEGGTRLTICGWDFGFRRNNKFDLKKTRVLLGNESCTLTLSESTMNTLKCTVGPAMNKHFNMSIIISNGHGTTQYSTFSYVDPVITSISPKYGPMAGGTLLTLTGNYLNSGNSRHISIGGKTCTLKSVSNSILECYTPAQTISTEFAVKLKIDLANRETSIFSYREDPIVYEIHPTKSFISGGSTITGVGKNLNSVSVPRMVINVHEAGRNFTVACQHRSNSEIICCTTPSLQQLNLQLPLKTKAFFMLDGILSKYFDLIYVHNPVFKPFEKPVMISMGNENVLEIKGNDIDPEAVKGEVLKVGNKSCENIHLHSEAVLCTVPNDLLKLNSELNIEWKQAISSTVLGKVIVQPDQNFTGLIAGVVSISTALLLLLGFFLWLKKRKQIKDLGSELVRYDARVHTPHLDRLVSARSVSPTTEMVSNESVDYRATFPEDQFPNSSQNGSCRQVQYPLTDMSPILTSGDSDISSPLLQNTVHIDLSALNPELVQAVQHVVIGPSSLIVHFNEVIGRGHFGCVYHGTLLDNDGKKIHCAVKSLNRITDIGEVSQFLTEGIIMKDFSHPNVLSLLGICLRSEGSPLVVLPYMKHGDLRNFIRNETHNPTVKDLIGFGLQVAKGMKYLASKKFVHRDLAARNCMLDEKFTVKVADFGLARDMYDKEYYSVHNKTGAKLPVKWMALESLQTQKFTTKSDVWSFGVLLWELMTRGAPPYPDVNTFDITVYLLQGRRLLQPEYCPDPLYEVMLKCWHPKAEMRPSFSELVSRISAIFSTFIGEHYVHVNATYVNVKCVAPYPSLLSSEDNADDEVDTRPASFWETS
Chain of Serine/threonine-protein kinase PAK 6 (Homo sapiens) (Q9NQU5 whole entry, looked up): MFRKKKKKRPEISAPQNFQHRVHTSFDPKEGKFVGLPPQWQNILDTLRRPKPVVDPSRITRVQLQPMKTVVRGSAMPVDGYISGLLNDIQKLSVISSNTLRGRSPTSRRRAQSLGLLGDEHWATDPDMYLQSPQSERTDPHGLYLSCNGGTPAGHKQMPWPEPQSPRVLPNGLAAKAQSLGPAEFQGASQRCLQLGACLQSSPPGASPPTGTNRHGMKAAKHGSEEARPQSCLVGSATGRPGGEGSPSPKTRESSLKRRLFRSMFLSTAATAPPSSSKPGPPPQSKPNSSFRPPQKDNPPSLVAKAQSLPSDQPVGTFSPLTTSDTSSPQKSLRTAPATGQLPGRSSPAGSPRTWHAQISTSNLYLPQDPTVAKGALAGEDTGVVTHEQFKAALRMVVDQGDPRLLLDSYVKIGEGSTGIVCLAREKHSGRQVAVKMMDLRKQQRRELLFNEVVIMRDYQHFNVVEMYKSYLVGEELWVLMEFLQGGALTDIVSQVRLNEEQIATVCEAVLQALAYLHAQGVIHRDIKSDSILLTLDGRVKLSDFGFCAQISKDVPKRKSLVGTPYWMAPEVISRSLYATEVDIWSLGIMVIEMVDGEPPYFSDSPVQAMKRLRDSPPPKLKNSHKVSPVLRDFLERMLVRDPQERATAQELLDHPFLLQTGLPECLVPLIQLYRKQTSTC

With `Cc1cc([C@@H](C)Nc2ccccc2C(=O)O)c2nc(N3CCOCC3)cc(=O)n2c1` [AZD-6482] as the compound, how does the % of control [1] read?
The % of control was 86%.

For `CC[C@@H]1[C@H](F)C(=O)N[C@@H]1COc1nccc2cc(C(N)=O)c(OC)cc12` [ZIMLOVISERTIB], which % of inhibition [2] is on record?
The % of inhibition was 25.2%.

Which % of control [3] does the source give for `Cc1cc(F)c(C(=O)Nc2cccc(-c3nncn3C(C)C)n2)cc1-n1cnc(C2CC2)c1` here?
The % of control was 8.7%.

For `CCC(=O)N1CCN(c2ccc(-n3c(=O)ccc4cnc5ccc(-c6cnc7ccccc7c6)cc5c43)cc2C(F)(F)F)CC1`, which % of control [4] is on record?
Its % of control is 100%.

With `O[C@H]1CC[C@H](Nc2ncc3nc(Nc4c(F)cc(F)cc4F)n([C@H]4CCOC4)c3n2)CC1` as the compound, how does the % of control [5] read?
The % of control was 100%.

With `CNC(=O)Nc1ccc(-c2nc(N3CC4CCC(C3)O4)c3cnn(C4CCC5(CC4)OCCO5)c3n2)cc1` as the compound, how does the % of control [6] read?
The % of control was 83%.

From ChEMBL document CHEMBL5465560, “Selectivity Literature for EUbOPEN Chemogenomic Library” (2024)
